According to PubChem BioAssay AID1963841 (Molecular Pharmacology Branch, DTP, NCI, 2024):

Tested on: 439559-082-T-J2-PDC spheroid viability
Test: Anticancer human tumor 439559-082-T-J2-PDC patient-derived colon adenocarcinoma cell line growth inhibition [POLQ]
Settings: spheroids with HUVEC and MSC; for IC50: curve of first compound; for viability, T/C: stronger effect = lower value
Description: Multicellular complex tumor spheroid response to Polymerase (POL) inhibitors (novobiocin, ART-558, RP6685) in combination with a variety of drugs and investigational agents in selected tumor cell lines
The POL inhibitors (novobiocin, ART-558, and RP6685) were evaluated both individually and in combination with standard of care and investigational anticancer small molecules within a complex spheroid model of solid tumors. . Complex spheroids include a stromal component modeled by human endothelial cells (HUVEC) and fibroblasts modeled by human mesenchymal stem cells (MSCs). The concentration ranges selected for each drug and investigational agent were based upon clinically achievable concentrations if the clinical Cmax of the agent was known.
Compounds. The drugs and investigational agents: novobiocin (NSC847541), ART-558 (NSC835418), RP-6685 (NSC848927), peposertib (NSC802822), ceralasertib (NSC780249), elimusertib (NSC800525), camonsertib (NSC841442), AZD-1390 (NSC803789), olaparib (NSC753686), talazoparib (NSC767125), rucaparib (NSC756644), sotorasib (NSC818433), MRTX-1133 (NSC836407), SN-38 (NSC673596), topotecan (NSC609699), epotoside (NSC141540), doxorubicin (NSC123127), gemcitabine (NSC613327), 5-fluorouracil (NSC19893), paclitaxel (NSC125973), vemurafenib (NSC761431), MSA-2 (NSC828583), SN-011 (NSC837082), adavosertib (NSC754352), prexasertib (NSC758257), carboplatin (NSC241240) and oxaliplatin (NSC266046), were obtained from the National Cancer Institute (NCI) Developmental Therapeutics Program Chemical Repository (21). The FDA-approved anticancer drug set is available from the Developmental Therapeutics Program at https://dtp.cancer.gov/organization/dscb/obtaining/. […] The stock solutions were prepared in dimethyl sulfoxide (DMSO, Sigma-Aldrich, St. Louis, MO, cat. D2650), except for the platinum compounds which were prepared in saline (Quality Biological, Gaithersburg, MD, cat. 114-055-101), at 800-fold the tested concentration and stored at -70 degrees C prior to their use. All drugs and investigational agents were tested over a range starting from a high concentration at or near the clinical Cmax and decreasing in half-log increments. If the clinical Cmax for an agent had not been determined, the highest concentration tested was 10 microM, except for SN-38, which was tested at a high concentration of 1 microM.
Cell Culture. All cells were maintained in an incubator at 37 degrees C and 5% CO2 with 95% humidity. The PDC lines were cultured according to standard operating procedures established by the NCI PDMR (https://pdmr.cancer.gov). Table 3 of the manuscript, lists the cell lines along with the number of the three cell types plated to form the mct-spheroids and media for tumor cell growth. After thawing, all PDC lines, except 997537-175-T-J1-PDC and 415267-285-R-J2-PDC, were cultured in Matrigel-coated flasks prepared with a working solution of 1X Ham's F-12 nutrient mix, without supplementation (Thermo Fisher Scientific, cat. 11765054), 100 U/mL penicillin-streptomycin (Thermo Fisher Scientific, cat. 15140122), and 2.5% Matrigel (Corning Inc., Corning, NY, cat. 354248) for the first three passages. The two PDC lines 997537-175-T-J1-PDC and 415267-285-R-J2-PDC were cultured on uncoated flasks. The 857933-349-R-J2-PDC line was cultured in 6C/Colon 1B media containing advanced DMEM/F-12 (Thermo Fisher Scientific, cat. 12634028), 10 mM HEPES (Thermo Fisher Scientific, cat. 15630080), 1X GlutaMAX supplement (Thermo Fisher Scientific, cat. 35050061), 0.1 mg/mL primocin (InvivoGen, San Diego, CA, cat. ant-pm-2), 10% defined fetal bovine serum, heat inactivated (HyClone Laboratories Inc., Logan, UT, cat. SH30070.03HI), 50% L-WRN conditioned media (ATCC, cat. CRL-3276), 1.25 mM N-Acetyl-L-cysteine (Sigma-Aldrich, cat. A9165), 10 mM nicotinamide (Sigma-Aldrich, cat. N0636), 1X B-27 supplement (Thermo Fisher Scientific, cat. 17504044), 1X N-2 supplement (Thermo Fisher Scientific, cat. […]
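Note: spheroids exposed to compounds for seven days before readout.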
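Throughout, for viability, T/C: 100% = DMSO vehicle control viability.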

In the case of CCc1c2c(nc3ccc(O)cc13)-c1cc3c(c(=O)n1C2)COC(=O)[C@]3(O)CC + Nc1ccc(C#CCN(C(=O)Cc2ncc(C(F)(F)F)cc2C(F)(F)F)c2ccc(F)cc2)nn1, the IC50 (second compound 0.0316 µM) is reported as > 1000 nM, the IC50 (second compound 0.1 µM) is reported as > 1000 nM and the IC50 (second compound 0.316 µM) is reported as > 1000 nM. For the same compound, the IC50 (second compound 1 µM) was > 1000 nM, the IC50 (second compound 3.16 µM) was 875 nM and the IC50 (second compound 10 µM) was 840 nM. The viability, T/C (second compound 0.0316 µM, first compound 0.00316 µM) was 102%, the viability, T/C (second compound 0.0316 µM, first compound 0.01 µM) was 79.3% and the viability, T/C (second compound 0.0316 µM, first compound 0.0316 µM) was 75.1%. It also gave a viability, T/C (second compound 0.0316 µM, first compound 0.1 µM) of 83.4%, a viability, T/C (second compound 0.0316 µM, first compound 0.316 µM) of 81.6% and a viability, T/C (second compound 0.0316 µM, first compound 1 µM) of 52.8%. The viability, T/C (second compound 0.1 µM, first compound 0.00316 µM) was 91.4%, the viability, T/C (second compound 0.1 µM, first compound 0.01 µM) was 79.4% and the viability, T/C (second compound 0.1 µM, first compound 0.0316 µM) was 71%. For the same compound, the viability, T/C (second compound 0.1 µM, first compound 0.1 µM) was 73.1%, the viability, T/C (second compound 0.1 µM, first compound 0.316 µM) was 75.7% and the viability, T/C (second compound 0.1 µM, first compound 1 µM) was 55.1%. It also gave a viability, T/C (second compound 0.316 µM, first compound 0.00316 µM) of 88.5%, a viability, T/C (second compound 0.316 µM, first compound 0.01 µM) of 80.6% and a viability, T/C (second compound 0.316 µM, first compound 0.0316 µM) of 63.4%. The viability, T/C (second compound 0.316 µM, first compound 0.1 µM) was 74.9%, the viability, T/C (second compound 0.316 µM, first compound 0.316 µM) was 90.4% and the viability, T/C (second compound 0.316 µM, first compound 1 µM) was 53.1%. For the same compound, the viability, T/C (second compound 1 µM, first compound 0.00316 µM) was 93.3%, the viability, T/C (second compound 1 µM, first compound 0.01 µM) was 81% and the viability, T/C (second compound 1 µM, first compound 0.0316 µM) was 75%. For the same compound, the viability, T/C (second compound 1 µM, first compound 0.1 µM) was 68.2%, the viability, T/C (second compound 1 µM, first compound 0.316 µM) was 86% and the viability, T/C (second compound 1 µM, first compound 1 µM) was 50.6%. The viability, T/C (second compound 3.16 µM, first compound 0.00316 µM) was 87.5%, the viability, T/C (second compound 3.16 µM, first compound 0.01 µM) was 81.2% and the viability, T/C (second compound 3.16 µM, first compound 0.0316 µM) was 69.2%. It also gave a viability, T/C (second compound 3.16 µM, first compound 0.1 µM) of 72.9%, a viability, T/C (second compound 3.16 µM, first compound 0.316 µM) of 81.5% and a viability, T/C (second compound 3.16 µM, first compound 1 µM) of 46.5%. It also gave a viability, T/C (second compound 10 µM, first compound 0.00316 µM) of 92.6%, a viability, T/C (second compound 10 µM, first compound 0.01 µM) of 74.4% and a viability, T/C (second compound 10 µM, first compound 0.0316 µM) of 76.8%. It also gave a viability, T/C (second compound 10 µM, first compound 0.1 µM) of 73.9%, a viability, T/C (second compound 10 µM, first compound 0.316 µM) of 80% and a viability, T/C (second compound 10 µM, first compound 1 µM) of 44.8%.
